Measured values: US12162893B2 (Erasca, Inc., priority 2020, dated 2024)

molecular target: T1, mutant G12C K-RAS (Homo sapiens, UniProt P01116, G12C); test: covalent adduct formation (CAF) with mutant G12C K-RAS; format: binding; settings: Table 6; 10 μM, 1 h
T1 construct: made in house; host or cells: E. coli BL21
Method: Embodiments disclosed herein are further illustrated by the following examples in Tables 1-4 and the Examples hereinbelow. The Tables indicate the compound number, structure, the observed mass spectral molecular weight peak, and covalent adduct formation (CAF) with a mutant G12C K-RAS after 60 minutes at a concentration of 10 micromolar.

Row | SMILES | % CAF @ 10 μM,1 h [%]
1 | C=CC(=O)N1C[C@H](C)N(c2nc(=O)n3c4c(c(-c5ccc(F)cc5F)c(Cl)cc24)OC[C@H]3CN2CCOCC2)C[C@H]1C [Example 204, (3R)-7-((2S,5R)-4-acryloyl-2,5-dimethylpiperazin-1-yl)-9-chloro-10-(2,4-difluorophenyl)-3-(morpholinomethyl)-2H-[1,4]oxazino[2,3,4-ij]quinazolin-5(3H)-one] | 82
2 | C=CC(=O)N1C[C@H](C)N(c2nc(=O)n3c4c(c(-c5cc(Cl)ccc5F)c(Cl)cc24)OC[C@H]3CN2CCC(F)(F)C2)C[C@H]1C [Example 206, (3R)-7-((2S,5R)-4-acryloyl-2,5-dimethylpiperazin-1-yl)-9-chloro-10-(5-chloro-2-fluorophenyl)-3-((3,3-difluoropyrrolidin-1-yl)methyl)-2,3-dihydro-5H-[1,4]oxazino[2,3,4-ij]quinazolin-5-one] | 10.7
3 | C=CC(=O)N1C[C@H](C)N(c2nc(=O)n3c4c(c(-c5cc(Cl)ccc5F)c(Cl)cc24)OC[C@@H]3CN2CCOCC2)C[C@H]1C [Example 211, (3S)-7-((2S,5R)-4-acryloyl-2,5-dimethylpiperazin-1-yl)-9-chloro-10-(5-chloro-2-fluorophenyl)-3-(morpholinomethyl)-2,3-dihydro-5H-[1,4]oxazino[2,3,4-ij]quinazolin-5-one] | 77.4
4 | C=CC(=O)N1C[C@H](C)N(c2nc(=O)n3c4c(c(-c5cc(Cl)ccc5F)c(Cl)cc24)OC[C@H]3CN2CCOCC2)C[C@H]1C [Example 212, (3R)-7-((2S,5R)-4-acryloyl-2,5-dimethylpiperazin-1-yl)-9-chloro-10-(5-chloro-2-fluorophenyl)-3-(morpholinomethyl)-2H-[1,4]oxazino[2,3,4-ij]quinazolin-5(3H)-one] | 59.8
5 | C=CC(=O)N1C[C@H](C)N(c2nc(=O)n3c4c(c(-c5ccc(F)cc5F)c(Cl)cc24)OC[C@H]3CCN2CCOCC2)C[C@H]1C [Example 213, (3R)-7-((2S,5R)-4-acryloyl-2,5-dimethylpiperazin-1-yl)-9-chloro-10-(2,4-difluorophenyl)-3-(2-morpholinoethyl)-2H-[1,4]oxazino[2,3,4-ij]quinazolin-5(3H)-one] | 90.6
6 | C=CC(=O)N1C[C@H](C)N(c2nc(=O)n3c4c(c(-c5cc(Cl)ccc5F)c(Cl)cc24)OC[C@@H]3CN2CCC(F)(F)C2)C[C@H]1C [Example 214, (3S)-7-((2S,5R)-4-acryloyl 2,5-dimethylpiperazin-1-yl)-9-chloro-10-(5-chloro-2-fluorophenyl)-3-((3,3-difluoropyrrolidin-1-yl)methyl)-2,3-dihydro-5H [1,4]oxazino[2,3,4-ij]quinazolin-5-one] | 60.9
7 | C=CC(=O)N1C[C@H](C)N(c2nc(=O)n3c4c(c(-c5ccc(F)cc5F)c(Cl)cc24)OC[C@@H]3CCCN2CCOCC2)C[C@H]1C [Example 215, (3S)-7-((2S,5R)-4-acryloyl-2,5-dimethylpiperazin-1-yl)-9-chloro-10-(2,4-difluorophenyl)-3-(3-morpholinopropyl)-2,3-dihydro-5H-[1,4]oxazino[2,3,4-ij]quinazolin-5-one] | 91.2
8 | C=CC(=O)N1C[C@H](C)N(c2nc(=O)n3c4c(c(-c5cc(Cl)ccc5F)c(Cl)cc24)OC[C@H]3CCCN2CCOCC2)C[C@H]1C [Example 216, (3R)-7-((2S,5R)-4-acryloyl-2,5-dimethylpiperazin-1-yl)-9-chloro-10-(5-chloro-2-fluorophenyl)-3-(3-morpholinopropyl)-2,3-dihydro-5H-[1,4]oxazino[2,3,4-ij]quinazolin-5-one] | 73.8
9 | C=CC(=O)N1C[C@H](C)N(c2nc(=O)n3c4c(c(-c5ccc(F)cc5F)c(Cl)cc24)OC[C@@H]3CCN2CCOCC2)C[C@H]1C [Example 217, (3S)-7-((2S,5R)-4-acryloyl-2,5-dimethylpiperazin-1-yl)-9-chloro-10-(2,4-difluorophenyl)-3-(2-morpholinoethyl)-2,3-dihydro-5H-[1,4]oxazino[2,3,4-ij]quinazolin-5-one] | 83.4
10 | C=CC(=O)N1C[C@H](C)N(c2nc(=O)n3c4c(c(-c5ccc(F)cc5F)c(Cl)cc24)OC[C@H]3CCCN2CCOCC2)C[C@H]1C [Example 218, (3R)-7-((2S,5R)-4-acryloyl-2,5-dimethylpiperazin-1-yl)-9-chloro-10-(2,4-difluorophenyl)-3-(3-morpholinopropyl)-2,3-dihydro-5H-[1,4]oxazino[2,3,4-ij]quinazolin-5-one] | 95.6
11 | C=CC(=O)N1C[C@H](C)N(c2nc(=O)n3c4c(c(-c5c(C)ccc6[nH]nnc56)ccc24)OCC3)C[C@H]1C [Example 219, 7-((2S,5R)-4-acryloyl-2,5-dimethylpiperazin-1-yl)-10-(5-methyl-1H-benzo[d][1,2,3]triazol-4-yl)-2,3-dihydro-5H-[1,4]oxazino[2,3,4-ij]quinazolin-5-one] | 0
12 | C=CC(=O)N1C[C@H](C)N(c2nc(=O)n3c4c(c(-c5c(O)cccc5F)c(Cl)cc24)OC[C@@H]3CN2CCC(F)(F)C2)C[C@H]1C [Example 220, (3S,10R)-7-((2S,5R)-4-acryloyl-2,5-dimethylpiperazin-1-yl)-9-chloro-3-((3,3-difluoropyrrolidin-1-yl)methyl)-10-(2-fluoro-6-hydroxyphenyl)-2,3-dihydro-5H-[1,4]oxazino[2,3,4-ij]quinazolin-5-one] | 0
13 | C=CC(=O)N1C[C@H](C)N(c2nc(=O)n3c4c(c(-c5c(O)cccc5F)c(Cl)cc24)OC[C@@H]3CN2CCC(F)(F)C2)C[C@H]1C [Example 221, (3S,10S)-7-((2S,5R)-4-acryloyl-2,5-dimethylpiperazin-1-yl)-9-chloro-3-((3,3-difluoropyrrolidin-1-yl)methyl)-10-(2-fluoro-6-hydroxyphenyl)-2,3-dihydro-5H-[1,4]oxazino[2,3,4-ij]quinazolin-5-one] | 70.9
14 | C=CC(=O)N1C[C@H](C)N(c2nc(=O)n3c4c(c(-c5c(F)ccc6[nH]nnc56)ccc24)OCC3)C[C@H]1C [Example 223, 7-((2S,5R)-4-acryloyl-2,5-dimethylpiperazin-1-yl)-10-(5-fluoro-1H-benzo[d][1,2,3]triazol-4-yl)-2,3-dihydro-5H-[1,4]oxazino[2,3,4-ij]quinazolin-5-one] | 0
15 | C=CC(=O)N1C[C@H](C)N(c2nc(=O)n3c4c(c(-c5c(F)ccc6cc[nH]c(=O)c56)ccc24)OCC3)C[C@H]1C [Example 224, 7-((2S,5R)-4-acryloyl-2,5-dimethylpiperazin-1-yl)-10-(7-fluoro-1-oxo-1,2-dihydroisoquinolin-8-yl)-2,3-dihydro-5H-[1,4]oxazino[2,3,4-ij]quinazolin-5-one] | 0
16 | C=CC(=O)N1C[C@H](C)N(c2nc(=O)n3c4c(c(-c5c(F)ccc6c5C(=O)NC6)ccc24)OCC3)C[C@H]1C [Example 231, 7-((2S,5R)-4-acryloyl-2,5-dimethylpiperazin-1-yl)-10-(5-fluoro-3-oxoisoindolin-4-yl)-2,3-dihydro-5H-[1,4]oxazino[2,3,4-ij]quinazolin-5-one] | 0
17 | C=CC(=O)N1C[C@H](C)N(c2nc(=O)n3c4c(c(-c5ccc(F)cc5F)c(Cl)cc24)OC[C@@H]3CN2CCC2)C[C@H]1C [Example 232, (3S)-7-((2S,5R)-4-acryloyl-2,5-dimethylpiperazin-1-yl)-3-(azetidin-1-ylmethyl)-9-chloro-10-(2,4-difluorophenyl)-2H-[1,4]oxazino[2,3,4-ij]quinazolin-5(3H)-one] | 82.4
